# Measured values as given in patent US10894787B2, “Modulators of the GPR119 receptor and the treatment of disorders related thereto” (Arena Pharmaceuticals, Inc., priority 2010, dated 2021).
# Experiments:
# male 129SVE mice = assay: Oral glucose tolerance test (oGTT) in male 129SVE mice; type: in vivo, mouse; settings: for Plasma Glucose Mean: N = 6; for % Inhibition of Glucose Excursion: AUC reduction relative to vehicle control
# Experimental: Male 129SVE mice (approximately 8-week old) were fasted for 18 h and randomly grouped (n=6) to receive a GPR119 agonist, (Compound 1), at 0.3, 3, or 30 mg/kg (mg/kg body weight). The compound was delivered orally via a gavage needle (p.o., volume 4 mL/kg) 30 min prior to glucose bolus (3 g/kg) (time=−30 min in FIG. 3), with a separate group receiving vehicle (20% hydroxypropyl-beta-cyclodextrin) as control. At time 0 min. the glucose bolus was administered. Levels of blood glucose were assessed using a glucometer (One-Touch Ultra™, LifeScan) at time −30 minute (prior to compound administration), at 0 min (at time when glucose bolus was given), and at 20, 40, 60, 120 min post glucose bolus. Glucose excursion (AUC (area under the curve) reduction) in compound treated animals relative to vehicle control is given in FIG. 4, and in Table 4.
# incretin hormone GIP = assay: In vivo incretin hormone GIP release, Total GIP ELISA on plasma; set-up: species or system mouse; settings: blood sample after 45 min, male 129SVE mice
# Experimental: Male 129SVE mice (approximately 8-week old) were fasted for 18 h and randomly grouped (n=6) to receive a GPR119 agonist, (Compound 1), at an oral dose of 0.1, 0.3, 1, 3, 10, or 30 mpk (mg/kg body weight). Compounds were delivered orally via a gavage needle (p.o., volume 4 mL/kg), and after 45 min a blood sample was collected to determine plasma total GIP levels. A separate group received vehicle (PET: 80% PEG400, 10% ethanol, 10% Tween80) as control. Plasma GIP levels were determined using a Total GIP ELISA kit from Millipore.
# GPR119 receptor = target: T1, GPR119 receptor (Homo sapiens, UniProt Q8TDV5); assay: HTRF assay for direct cAMP measurement in CHO-K1 cells stably expressing the GPR119 receptor; type: cell-based; settings: CHO-K1 cells stably expressing GPR119; 1 h incubation at room temperature; read-out: EC50, HTRF cAMP assay
# T1 construct: expressed in transfected cells
# T1 sequence (Q8TDV5 2-335 limits assumed): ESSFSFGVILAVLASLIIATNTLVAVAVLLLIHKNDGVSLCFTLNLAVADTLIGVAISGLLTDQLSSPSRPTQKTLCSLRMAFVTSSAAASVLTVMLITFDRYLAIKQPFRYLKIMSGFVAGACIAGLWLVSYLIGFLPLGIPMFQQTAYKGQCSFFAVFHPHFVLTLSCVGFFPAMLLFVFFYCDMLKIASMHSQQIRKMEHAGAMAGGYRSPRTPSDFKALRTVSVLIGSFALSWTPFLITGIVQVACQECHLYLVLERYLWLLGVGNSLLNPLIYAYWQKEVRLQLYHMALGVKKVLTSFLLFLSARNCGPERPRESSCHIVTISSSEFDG
# Experimental: The GPR119 agonist, Compound 1, was evaluated in an HTRF® cAMP detection assay according to the manufacturer's instructions (Cisbio, cAMP Dynamic 2 Assay Kit; #62AM4PEJ) using CHO-K1 cells stably expressing the GPR119 receptor. Briefly, CHO-K1 cells were transduced with a lentiviral vector encoding the nucleotide sequence of GPR119 (NCBI mRNA and protein reference sequences: NM_178471.2 & NP_848566, (GPR119 has also been referred to as Glucose-Dependent Insulinotropic Receptor (GDIR)). The N-terminus of the GPR119 nucleotide sequence was modified to replace the first, methionine-coding codon with a nucleotide sequence coding for a standard, nine amino acid, hemagglutinin tag. Following transduction, cells expressing the GPR119 receptor were isolated and a single clone was isolated following standard dilution-cloning procedures. On the day of the assay, cultured CHO-GPR119 cells were harvested, suspended in assay buffer and plated into 384-well assay plates (PerkinElmer Proxiplate #6008280) at a density of 2,000 cells per well. A cAMP standard curve was included on each plate. Test compounds were solubilized in DMSO, serially diluted in DMSO and then diluted in assay buffer before adding to the cells. Test compounds were evaluated in triplicate, using 10-point, 5-fold serial dilutions starting at 10 μM. The final DMSO concentration in the assay was 0.5%. Compounds and cells were incubated for 1 h at room temperature and then detection reagents were added to each well (cAMP-D2 in cell lysis buffer, followed by europium cryptate-labeled anti-cAMP antibody). Plates were then incubated at room temperature for 1 h prior to reading. Time-resolved fluorescence measurements were collected on PerkinElmer Envision™ or BMG Pherastar™ microplate readers. The compound N-(2-fluoro-4-(methylsulfonyl)phenyl)-6-(4-(3-isopropyl-1,2,4-oxadiazol-5-yl)piperidin-1-yl)-5-nitropyrimidin-4-amine was used as a positive control in each runset while assay buffer containing 0.5% DMSO was used as the negative control.
compound,measurement,setting,value
"CN(C)C(=O)c1ccc(Nc2ncnc(N3CCC(c4nc(C(C)(C)F)no4)CC3)c2F)c(F)c1 [Compound 1, 3-fluoro-4-(5-fluoro-6-(4-(3-(2-fluoropropan-2-yl)-1,2,4-oxadiazol-5-yl)piperidin-1-yl)pyrimidin-4-ylamino)-N,N-dimethylbenzamide]",Plasma Glucose Mean,"male 129SVE mice; 0.3 mg/kg p.o. 30 min prior to glucose bolus, time 0 min",74.2 mg/dL
same,Plasma Glucose Mean,"male 129SVE mice; 0.3 mg/kg p.o., 20 min post glucose bolus",221.3 mg/dL
same,Plasma Glucose Mean,"male 129SVE mice; 0.3 mg/kg p.o., 40 min post glucose bolus",274.8 mg/dL
same,Plasma Glucose Mean,"male 129SVE mice; 0.3 mg/kg p.o., 60 min post glucose bolus",258.2 mg/dL
same,Plasma Glucose Mean,"male 129SVE mice; 0.3 mg/kg p.o., 120 min post glucose bolus",154.5 mg/dL
same,% Inhibition of Glucose Excursion,"male 129SVE mice; 0.3 mg/kg p.o., 129SVE mice",16.9%
same,Plasma Glucose Mean,"male 129SVE mice; 0.3 mg/kg p.o., time -30 min (prior to compound administration)",58.5 mg/dL
same,Plasma Glucose Mean,"male 129SVE mice; 3.0 mg/kg p.o. 30 min prior to glucose bolus, time 0 min",75.2 mg/dL
same,Plasma Glucose Mean,"male 129SVE mice; 3.0 mg/kg p.o., 20 min post glucose bolus",206.7 mg/dL
same,Plasma Glucose Mean,"male 129SVE mice; 3.0 mg/kg p.o., 40 min post glucose bolus",233.0 mg/dL
same,Plasma Glucose Mean,"male 129SVE mice; 3.0 mg/kg p.o., 60 min post glucose bolus",213.5 mg/dL
same,Plasma Glucose Mean,"male 129SVE mice; 3.0 mg/kg p.o., 120 min post glucose bolus",138.2 mg/dL
same,% Inhibition of Glucose Excursion,"male 129SVE mice; 3 mg/kg p.o., 129SVE mice",34.8%
same,Plasma Glucose Mean,"male 129SVE mice; 3.0 mg/kg p.o., time -30 min (prior to compound administration)",63.5 mg/dL
same,Plasma Glucose Mean,"male 129SVE mice; 30.0 mg/kg p.o. 30 min prior to glucose bolus, time 0 min",78.7 mg/dL
same,Plasma Glucose Mean,"male 129SVE mice; 30.0 mg/kg p.o., 20 min post glucose bolus",185.8 mg/dL
same,Plasma Glucose Mean,"male 129SVE mice; 30.0 mg/kg p.o., 40 min post glucose bolus",216.0 mg/dL
same,Plasma Glucose Mean,"male 129SVE mice; 30.0 mg/kg p.o., 60 min post glucose bolus",191.7 mg/dL
same,Plasma Glucose Mean,"male 129SVE mice; 30.0 mg/kg p.o., 120 min post glucose bolus",138.7 mg/dL
same,% Inhibition of Glucose Excursion,"male 129SVE mice; 30 mg/kg p.o., 129SVE mice",42.1%
same,Plasma Glucose Mean,"male 129SVE mice; 30.0 mg/kg p.o., time -30 min (prior to compound administration)",64.5 mg/dL
same,Effect on blood glucose after a challenge with glucose,"male 129SVE mice; 129SVE mice, 0.3-30 mg/kg p.o.",lowered blood glucose
same,"Total Plasma GIP in Mice, Total GIP",incretin hormone GIP; 0.1 mg/kg p.o.,60.92 pg/mL
same,"Total Plasma GIP in Mice, Total GIP",incretin hormone GIP; 0.3 mg/kg p.o.,68.21 pg/mL
same,"Total Plasma GIP in Mice, Total GIP",incretin hormone GIP; 1 mg/kg p.o.,183.8 pg/mL
same,"Total Plasma GIP in Mice, Total GIP",incretin hormone GIP; 3 mg/kg p.o.,318.5 pg/mL
same,"Total Plasma GIP in Mice, Total GIP",incretin hormone GIP; 10 mg/kg p.o.,444.8 pg/mL
same,"Total Plasma GIP in Mice, Total GIP",incretin hormone GIP; 30 mg/kg p.o.,695.0 pg/mL
same,EC50,GPR119 receptor,23.4 nM
